# Experimental data: paper PMC4172859, “Positive Darwinian selection is a driving force for the diversification of terpenoid biosynthesis in the genus Oryza” (BMC Plant Biology, 2014)
# Key:
# Assay in all cases: SPME GC-MS product analysis, recombinant E. coli extract
# Type in all cases: biochemical
# Conditions in all cases: 10 uM FPP, 10 mM MgCl2, pH 7.0, 30 °C; mere turnover
# OryzaTPS1 (O. nivara) = target: T1, OryzaTPS1 (O. nivara) (Oryza nivara, UniProt A0A076L4Z9)
# T1 construct: full-length cDNA in pEXP5-CT/TOPO, E. coli BL21 Codon Plus, desalted extract
# T1 sequence (A0A076L4Z9 1-575): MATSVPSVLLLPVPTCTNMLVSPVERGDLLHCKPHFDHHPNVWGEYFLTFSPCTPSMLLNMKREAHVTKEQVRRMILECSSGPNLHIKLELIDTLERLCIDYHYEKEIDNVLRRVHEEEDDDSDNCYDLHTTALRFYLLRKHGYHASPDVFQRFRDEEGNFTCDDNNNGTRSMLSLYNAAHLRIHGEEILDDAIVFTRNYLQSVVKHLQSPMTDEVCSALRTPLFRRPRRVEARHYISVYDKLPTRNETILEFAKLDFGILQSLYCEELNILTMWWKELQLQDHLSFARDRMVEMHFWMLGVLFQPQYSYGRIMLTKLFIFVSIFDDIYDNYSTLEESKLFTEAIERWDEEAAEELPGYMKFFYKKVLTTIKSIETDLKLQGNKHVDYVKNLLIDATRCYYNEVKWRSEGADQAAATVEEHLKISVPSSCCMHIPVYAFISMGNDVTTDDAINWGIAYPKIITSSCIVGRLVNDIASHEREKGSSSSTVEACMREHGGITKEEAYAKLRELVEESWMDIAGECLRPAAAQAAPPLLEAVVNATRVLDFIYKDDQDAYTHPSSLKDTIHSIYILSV
# [1] = target: T2, OryzaTPS1 (O. glaberrima) (Oryza glaberrima, UniProt I1QFJ1)
# T2 construct: gene LOC127781497; full-length cDNA in pEXP5-CT/TOPO, E. coli BL21 Codon Plus, desalted extract
# T2 sequence (I1QFJ1 1-575): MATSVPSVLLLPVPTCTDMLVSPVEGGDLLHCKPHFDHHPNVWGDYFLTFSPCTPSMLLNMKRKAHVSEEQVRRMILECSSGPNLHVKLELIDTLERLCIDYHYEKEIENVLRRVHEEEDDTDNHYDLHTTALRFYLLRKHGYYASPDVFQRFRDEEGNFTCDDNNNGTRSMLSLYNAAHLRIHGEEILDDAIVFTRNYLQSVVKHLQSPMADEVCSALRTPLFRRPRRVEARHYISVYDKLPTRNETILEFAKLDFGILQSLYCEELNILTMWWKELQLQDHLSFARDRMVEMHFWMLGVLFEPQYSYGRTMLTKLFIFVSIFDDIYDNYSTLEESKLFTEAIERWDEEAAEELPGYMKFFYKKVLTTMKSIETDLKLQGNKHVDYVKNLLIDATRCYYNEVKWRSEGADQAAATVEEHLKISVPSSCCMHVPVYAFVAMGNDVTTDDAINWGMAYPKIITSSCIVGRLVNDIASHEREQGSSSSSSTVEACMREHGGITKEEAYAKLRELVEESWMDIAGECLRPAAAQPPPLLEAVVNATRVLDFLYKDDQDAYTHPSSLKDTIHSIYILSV
# ObTPS1 [2] = target: T3, ObTPS1 (Oryza barthii, UniProt A0A0D3GW75)
# T3 construct: full-length cDNA in pEXP5-CT/TOPO, E. coli BL21 Codon Plus, desalted extract
# T3 sequence (A0A0D3GW75 1-575): T2 sequence (I1QFJ1 1-575)
# [3] = target: T4, OryzaTPS1 (O. glumaepatula) (Oryza glumipatula, UniProt A0A076L503)
# T4 construct: full-length cDNA in pEXP5-CT/TOPO, E. coli BL21 Codon Plus, desalted extract
# T4 sequence (A0A076L503 1-574): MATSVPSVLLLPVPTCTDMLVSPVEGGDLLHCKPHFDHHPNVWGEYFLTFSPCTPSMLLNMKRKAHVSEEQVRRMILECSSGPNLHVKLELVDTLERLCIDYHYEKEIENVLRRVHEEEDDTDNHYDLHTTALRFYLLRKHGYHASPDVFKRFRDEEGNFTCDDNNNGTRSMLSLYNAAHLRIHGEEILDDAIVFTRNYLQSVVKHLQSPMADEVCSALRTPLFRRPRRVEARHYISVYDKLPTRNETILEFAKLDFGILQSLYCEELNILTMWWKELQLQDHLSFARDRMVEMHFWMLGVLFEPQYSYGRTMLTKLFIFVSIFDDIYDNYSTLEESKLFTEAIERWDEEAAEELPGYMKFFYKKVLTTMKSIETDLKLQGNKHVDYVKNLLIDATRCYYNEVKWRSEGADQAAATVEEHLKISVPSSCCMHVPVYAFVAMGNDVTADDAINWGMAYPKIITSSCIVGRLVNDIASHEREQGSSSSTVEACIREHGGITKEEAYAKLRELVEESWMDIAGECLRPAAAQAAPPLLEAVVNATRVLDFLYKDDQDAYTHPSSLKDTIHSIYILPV
# ObTPS1 [4] = target: T5, ObTPS1 (Oryza barthii, UniProt A0A0D3GW75, F318L/C429G/V433I)
# T5 construct: full-length cDNA in pEXP5-CT/TOPO, E. coli BL21 Codon Plus, desalted extract
# T5 sequence (A0A0D3GW75 entry or part of it F318L/C429G/V433I): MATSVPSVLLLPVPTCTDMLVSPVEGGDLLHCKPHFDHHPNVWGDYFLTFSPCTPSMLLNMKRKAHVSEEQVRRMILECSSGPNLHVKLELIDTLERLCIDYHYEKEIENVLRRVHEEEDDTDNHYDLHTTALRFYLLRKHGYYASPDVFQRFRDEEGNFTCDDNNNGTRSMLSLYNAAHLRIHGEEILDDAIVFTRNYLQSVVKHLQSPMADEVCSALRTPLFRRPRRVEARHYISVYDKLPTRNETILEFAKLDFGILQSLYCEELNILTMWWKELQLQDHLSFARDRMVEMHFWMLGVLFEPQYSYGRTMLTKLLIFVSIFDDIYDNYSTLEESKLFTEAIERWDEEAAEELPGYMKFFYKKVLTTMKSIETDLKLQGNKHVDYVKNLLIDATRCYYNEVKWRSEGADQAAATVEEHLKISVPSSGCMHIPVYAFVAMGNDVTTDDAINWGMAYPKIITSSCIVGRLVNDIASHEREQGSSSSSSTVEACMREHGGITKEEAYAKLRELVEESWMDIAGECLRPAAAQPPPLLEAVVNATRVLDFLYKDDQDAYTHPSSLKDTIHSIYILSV
smiles,measurement,setting,value
"CC(C)=CCC/C(C)=C/CC/C(C)=C/COP(=O)(O)OP(=O)(O)O [(E, E)-farnesyl diphosphate]","SPME GC-MS product analysis, recombinant E. coli extract",OryzaTPS1 (O. nivara),All these proteins were biochemically active
same,"SPME GC-MS product analysis, recombinant E. coli extract",[1],All these proteins were biochemically active
same,"SPME GC-MS product analysis, recombinant E. coli extract",ObTPS1 [2],"The enzymes were expressed in E. coli, extracted, and incubated with the substrate (E, E)-farnesyl diphosphate"
same,"SPME GC-MS product analysis, recombinant E. coli extract",[3],All these proteins were biochemically active
same,"SPME GC-MS product analysis, recombinant E. coli extract",ObTPS1 [4],"The triple mutant ObTPS1-F318L + C429G + V433I produced comparable amounts of germacrene A, germacrene D"
